Measurements reported in PubChem BioAssay (NCI).
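Results reflect a 48-hour exposure of cells in 96-well plates to compound at five concentrations. TGI: concentration producing complete growth inhibition.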

How the values were obtained:
Assay in all cases: NCI-60 cell line screen, 48 h
[1] = test system: 786-0 renal
[2] = test system: A498 renal
[3] = test system: A549 NSCLC
[4] = test system: ACHN renal
[5] = test system: CAKI-1 renal
[6] = test system: CCRF-CEM leukemia
[7] = test system: COLO 205 colon
[8] = test system: DU-145 prostate
[9] = test system: EKVX NSCLC
[10] = test system: HCC-2998 colon
[11] = test system: HCT-116 colon
[12] = test system: HCT-15 colon
[13] = test system: HL-60(TB) leukemia
[14] = test system: HOP-62 NSCLC
[15] = test system: HOP-92 NSCLC
[16] = test system: HS 578T breast
[17] = test system: HT29 colon
[18] = test system: IGROV1 ovarian
[19] = test system: K-562 leukemia
[20] = test system: KM12 colon
[21] = test system: LOX IMVI melanoma
[22] = test system: M14 melanoma
[23] = test system: MALME-3M melanoma
[24] = test system: MCF7 breast
[25] = test system: MDA-MB-231 breast
[26] = test system: MDA-MB-435
[27] = test system: MDA-N
[28] = test system: MOLT-4 leukemia
[29] = test system: NCI-H226 lung
[30] = test system: NCI-H23 lung
[31] = test system: NCI-H460 lung
[32] = test system: NCI-H522 lung
[33] = test system: NCI/ADR-RES ovarian
[34] = test system: OVCAR-3 ovarian
[35] = test system: OVCAR-4 ovarian
[36] = test system: OVCAR-5 ovarian
[37] = test system: OVCAR-8 ovarian
[38] = test system: PC-3 prostate
[39] = test system: RPMI-8226 leukemia
[40] = test system: RXF 393 renal
[41] = test system: SF-268 CNS
[42] = test system: SF-295 CNS
[43] = test system: SF-539 CNS
[44] = test system: SK-MEL-2 melanoma
[45] = test system: SK-MEL-28 melanoma
[46] = test system: SK-MEL-5 melanoma
[47] = test system: SK-OV-3 ovarian
[48] = test system: SN12C renal
[49] = test system: SNB-19 CNS
[50] = test system: SNB-75 CNS
[51] = test system: SR leukemia
[52] = test system: SW-620 colon
[53] = test system: T-47D breast
[54] = test system: TK-10 renal
[55] = test system: U251 CNS
[56] = test system: UACC-257 melanoma
[57] = test system: UACC-62 melanoma
[58] = test system: UO-31 renal
[59] = test system: BT-549 breast

For O=C1c2ccccc2C(=O)c2sc(Nc3cc(Cl)ccc3Cl)nc21, the TGI [1] was 22.6 µM, the TGI [2] was 41.9 µM and the TGI [3] was 42.2 µM. The TGI [4] was 19 µM, the TGI [5] was 11.7 µM and the TGI [6] was greater than 100 µM. For the same molecule, the TGI [7] was 34 µM, the TGI [8] was 24.6 µM and the TGI [9] was 26.7 µM. The TGI [10] was 20.7 µM, the TGI [11] was 13.7 µM and the TGI [12] was 9.48 µM. It also gave a TGI [13] of 4.89 µM, a TGI [14] of 28.9 µM and a TGI [15] of 36.2 µM. For the same molecule, the TGI [16] was greater than 72.3 µM, the TGI [17] was 36.1 µM and the TGI [18] was 24.3 µM. It also gave a TGI [19] greater than 31.8 µM, a TGI [20] of 26.5 µM and a TGI [21] of 5.78 µM. It also gave a TGI [22] greater than 42.6 µM, a TGI [23] of 3.33 µM and a TGI [24] of 3.7 µM. The TGI [25] was 5.56 µM, the TGI [26] was 3.85 µM and the TGI [27] was 3.41 µM. It also gave a TGI [28] greater than 30.4 µM, a TGI [29] of 44.7 µM and a TGI [30] of 28.7 µM. The TGI [31] was 21.5 µM, the TGI [32] was 18.3 µM and the TGI [33] was 7.31 µM. The TGI [34] was 4.07 µM, the TGI [35] was 18.2 µM and the TGI [36] was 45.6 µM. For the same molecule, the TGI [37] was 14.2 µM, the TGI [38] was 18.5 µM and the TGI [39] was 22.6 µM. It also gave a TGI [40] of 39.3 µM, a TGI [41] of 21 µM and a TGI [42] of 17.4 µM. The TGI [43] was 13.4 µM, the TGI [44] was 31.6 µM and the TGI [45] was 27.3 µM. For the same molecule, the TGI [46] was 2.98 µM, the TGI [47] was 30.3 µM and the TGI [48] was 3.17 µM. It also gave a TGI [49] of 37.9 µM, a TGI [50] of 38.2 µM and a TGI [51] greater than 100 µM. For the same molecule, the TGI [52] was greater than 22.2 µM, the TGI [53] was 34.3 µM and the TGI [54] was 29.4 µM. It also gave a TGI [55] of 33.5 µM, a TGI [56] of 7.76 µM and a TGI [57] of 6.27 µM. For the same molecule, the TGI [58] was 19.4 µM.

For CC(C)=Nn1cnc2c1NC(C)(C)N=C2C(N)=O, the TGI [1] was greater than 10 µM, the TGI [3] was greater than 10 µM and the TGI [4] was greater than 10 µM. For the same molecule, the TGI [59] was greater than 10 µM, the TGI [6] was greater than 10 µM and the TGI [8] was greater than 10 µM. It also gave a TGI [9] greater than 10 µM, a TGI [13] greater than 10 µM and a TGI [16] greater than 10 µM. For the same molecule, the TGI [18] was greater than 10 µM, the TGI [19] was greater than 10 µM and the TGI [20] was greater than 10 µM. It also gave a TGI [22] greater than 10 µM, a TGI [24] greater than 10 µM and a TGI [25] of 7.64 µM. It also gave a TGI [26] greater than 10 µM, a TGI [27] greater than 10 µM and a TGI [28] greater than 10 µM. The TGI [29] was greater than 10 µM, the TGI [30] was greater than 10 µM and the TGI [31] was greater than 10 µM. The TGI [32] was greater than 10 µM, the TGI [34] was greater than 10 µM and the TGI [35] was greater than 10 µM. It also gave a TGI [36] greater than 10 µM, a TGI [37] greater than 10 µM and a TGI [40] greater than 10 µM. For the same molecule, the TGI [41] was greater than 10 µM, the TGI [42] was greater than 10 µM and the TGI [43] was greater than 10 µM. The TGI [46] was greater than 10 µM, the TGI [49] was greater than 10 µM and the TGI [50] was greater than 10 µM. The TGI [51] was greater than 10 µM, the TGI [53] was 8.19 µM and the TGI [54] was greater than 10 µM. The TGI [55] was greater than 10 µM, the TGI [56] was greater than 10 µM and the TGI [58] was greater than 10 µM.

Molecule CC[C@@]12CCC(=S)N(CCSc3ccccc3)[C@@H]1c1c(n(S(=O)(=O)c3ccc(OC)cc3)c3ccccc13)CC2 has a TGI [1] greater than 100 µM, a TGI [2] greater than 100 µM and a TGI [3] greater than 100 µM. The TGI [59] was greater than 100 µM, the TGI [5] was greater than 100 µM and the TGI [6] was greater than 100 µM. The TGI [7] was greater than 100 µM, the TGI [8] was greater than 100 µM and the TGI [9] was greater than 100 µM. It also gave a TGI [11] greater than 100 µM, a TGI [12] greater than 100 µM and a TGI [13] greater than 100 µM. It also gave a TGI [14] greater than 100 µM, a TGI [15] greater than 100 µM and a TGI [16] greater than 100 µM. For the same molecule, the TGI [17] was greater than 100 µM, the TGI [18] was greater than 100 µM and the TGI [19] was greater than 100 µM. The TGI [20] was greater than 100 µM, the TGI [21] was greater than 100 µM and the TGI [22] was greater than 100 µM. The TGI [23] was greater than 100 µM, the TGI [24] was greater than 100 µM and the TGI [25] was greater than 100 µM. It also gave a TGI [26] greater than 100 µM, a TGI [28] greater than 100 µM and a TGI [29] greater than 100 µM. For the same molecule, the TGI [30] was greater than 100 µM, the TGI [31] was greater than 100 µM and the TGI [32] was greater than 100 µM. It also gave a TGI [33] greater than 100 µM, a TGI [34] greater than 100 µM and a TGI [36] greater than 100 µM. For the same molecule, the TGI [37] was greater than 100 µM, the TGI [38] was greater than 100 µM and the TGI [39] was greater than 100 µM. For the same molecule, the TGI [40] was greater than 100 µM, the TGI [41] was greater than 100 µM and the TGI [42] was greater than 100 µM. It also gave a TGI [43] greater than 100 µM, a TGI [44] greater than 100 µM and a TGI [45] greater than 100 µM. The TGI [46] was greater than 100 µM, the TGI [47] was greater than 100 µM and the TGI [48] was greater than 100 µM. It also gave a TGI [49] greater than 100 µM, a TGI [50] greater than 100 µM and a TGI [51] greater than 100 µM. For the same molecule, the TGI [52] was greater than 100 µM, the TGI [53] was greater than 100 µM and the TGI [54] was greater than 100 µM. The TGI [55] was greater than 100 µM, the TGI [56] was greater than 100 µM and the TGI [57] was greater than 100 µM. It also gave a TGI [58] greater than 100 µM.

In the case of CC(C)(CN1CCCCC1)C(=O)CC(SCCS(=O)(=O)O)c1ccc(Cl)cc1 (stereo unspecified), the TGI [1] is reported as 8.91 µM, the TGI [2] is reported as 13.5 µM and the TGI [3] is reported as 23.5 µM. It also gave a TGI [4] of 17.1 µM, a TGI [59] of 22.7 µM and a TGI [5] of 18.3 µM. It also gave a TGI [6] of 6.04 µM, a TGI [7] of 8.94 µM and a TGI [8] of 21.7 µM. The TGI [9] was 11.8 µM, the TGI [10] was 26 µM and the TGI [11] was 13.6 µM. The TGI [12] was 6.66 µM, the TGI [13] was 8.13 µM and the TGI [14] was 25 µM. It also gave a TGI [15] of 7.13 µM, a TGI [16] of 7.5 µM and a TGI [17] of 12.6 µM. It also gave a TGI [18] of 20.4 µM, a TGI [19] of 9.91 µM and a TGI [20] of 19.2 µM. It also gave a TGI [22] of 9.19 µM, a TGI [23] of 24.3 µM and a TGI [24] of 11.8 µM. It also gave a TGI [25] of 6.61 µM, a TGI [26] of 10.6 µM and a TGI [27] of 9.57 µM. It also gave a TGI [28] of 6.63 µM, a TGI [29] of 27.9 µM and a TGI [30] of 16.6 µM. The TGI [31] was 25.2 µM, the TGI [32] was 6.29 µM and the TGI [33] was 34 µM. For the same molecule, the TGI [34] was 17.9 µM, the TGI [36] was 11.4 µM and the TGI [37] was 11.1 µM. For the same molecule, the TGI [38] was 18.1 µM, the TGI [39] was 6.65 µM and the TGI [40] was 9.92 µM. For the same molecule, the TGI [42] was 15.8 µM, the TGI [43] was 4.66 µM and the TGI [44] was 18.8 µM. It also gave a TGI [46] of 20.8 µM, a TGI [47] of 28.8 µM and a TGI [48] of 15.8 µM. For the same molecule, the TGI [49] was 28.9 µM, the TGI [50] was 15.1 µM and the TGI [51] was 4.82 µM. It also gave a TGI [52] of 9.07 µM, a TGI [54] of 18.9 µM and a TGI [55] of 22.3 µM. It also gave a TGI [56] of 20.5 µM, a TGI [57] of 13.6 µM and a TGI [58] of 15.1 µM.
